A short description of this assay: Free radical-scavenging/antioxidant assay (DPPH). As to conditions: 50 μM DPPH in 80% methanol, absorbance at 520 nm, 24 h time point (steady state); read-out: EC50 (concentration at which a compound reduces by 50% the peak absorbance of DPPH at 520 nm). In kind it is biochemical. How it is done: Nitrone compounds of the present invention were tested for their free-radical scavenging/antioxidant activity in an in vitro assay that is accepted by those skilled in the art as a model for conditions involving the generation of free radicals. The assay is based on a reaction between a free-radical donor, 2,2-diphenyl-1-picrylhydrazyl (DPPH), and a radical scavenger/antioxidant to be tested for free-radical scavenging activity. Upon donation of the free-radical electron to the purported radical scavenger, the peak visible absorbance of DPPH (515-520 nm) decreases so that optical density readings at this part of the visual spectrum reflect the progression of the following reaction: DPPH∩+AH→DPPH-H+A∩ where AH is a hypothetical radical scavenger/antioxidant. The assay is based on a protocol originally detailed in Brand-Williams, W. et al., 1995, Use of a Free Radical Method to Evaluate Antioxidant Activity, Lebensm. Wiss. Technol., 28:25-30, with further modifications described in L. R. Fukumoto and G. Mazza, 2000, Assessing Antioxidant and Prooxidant Activities of Phenolic Compounds, J. Agric. Food Chem., 48:3597-3604.
The antioxidant assay was performed using Perkin-Elmer 96-well, clear-bottom, black-wall plates (ordered from E & K Scientific Products) and a Tecan Safire absorbance plate reader. The positive controls were Trolox (6-hydroxy-2,5,7,8-tetramethylchromane-2-carboxylic acid, Sigma-Aldrich), BHA (2(3)-tert-butylhydroquinone monomethyl ether, Sigma-Aldrich), PBN (C-(phenyl)-N-(tert-butyl)nitrone, Sigma-Aldrich) and S-PBN (C-(2-sulfophenyl)-N-(tert-butyl)nitrone, sodium salt, prepared according to E. G. Janzen and R. V. Shetty, 1979, Tetrahedron Lett., 35: 3229-32), and the negative control (i.e., vehicle) was DMSO. In brief, 2 μL of 100×DMSO stock of the desired final concentration of each control or nitrone compound to be tested in the same batch was added to a separate well. To each well was then added 198 μL of a freshly made 50 μM DPPH (Sigma-Aldrich) solution in 80% methanol using a multi-channel pipette. The absorbance was immediately read on the plate reader at 520 nm and thereafter read periodically to assess kinetics until all reactions reached completion (i.e., steady state). Since the steady-state point was 24 h, the assay results are shown from the 24 h time point. The absorbance at 520 nm (OD) was plotted versus the concentrations of the controls and nitrone compounds to assess dose-response and interpolate the EC50 values of the controls and test compounds.
(DPPH is a stable violet radical that fades when it is reduced.)

A value given as a limit tells only on which side of the number the result lay.

The record followed here is patent publication US20070275932A1, “Aryl, heteroaromatic and bicyclic aryl nitrone compounds, prodrugs and pharmaceutical compositions of the same to treat human disorders” (Renovis, Inc., priority 2003, published 2007).

With `CC(C)(C)C(=O)Nc1cccc(/C=[N+](\[O-])C(C)(C)C)n1` [Example 51, N-(tert-Butyl)-C-[6-(2,2-dimethylpropanamido)pyridin-2-yl]nitrone], the EC50 was greater than 1000 µM.
Take `CC(C)(C)[N+]([O-])=Cc1ccccc1` [PBN, C-(phenyl)-N-(tert-butyl)nitrone, reference compound]: the EC50 was greater than 1000 µM.
Under `COc1cc(/C=[N+](\[O-])C2CCCCC2)c(C(=O)O)c(OC)c1` [Example 11, N-Cyclohexyl-C-(2-carboxy-3,5-dimethoxyphenyl)nitrone] stands 10 to 100 µM; under `CC(C)(C)/[N+]([O-])=C/c1sccc1C(=O)O` [Example 41, N-(tert-Butyl)-C-(3-carboxythiophen-2-yl)nitrone], 10 to 100 µM.
Take `CC(C)(C)/[N+]([O-])=C/c1cccnc1N1CCOCC1` [Example 46, N-(tert-Butyl)-C-[2-(1-morpholino)pyridin-3-yl]nitrone]: the EC50 was greater than 1000 µM.
With `CCSc1ccccc1/C=[N+](\[O-])C(C)(C)C` [Example 33, N-(tert-Butyl)-C-[2-(ethylthio)phenyl]nitrone], the EC50 is greater than 1000 µM.
The same measure for `O=C(O)c1ccccc1/C=[N+](\[O-])Cc1ccccc1` [Example 9, N-Benzyl-C-(2-carboxyphenyl)nitrone]: 10 to 100 µM; for `CSc1cc(C(F)(F)F)ccc1/C=[N+](\[O-])C(C)(C)C` [Example 35, N-(tert-Butyl)-C-[2-(methylthio)-4-(trifluoromethyl)phenyl]nitrone]: greater than 1000 µM; for `[O-]/[N+](=C\c1ccccc1-n1cccn1)C1CCCCC1` [Example 18, N-Cyclohexyl-C-[2-(pyrazol-1-yl)phenyl]nitrone]: greater than 1000 µM.
Under `COC(=O)c1[nH]c2ccccc2c1/C=[N+](\[O-])C(C)(C)C` [Example 38, N-(tert-Butyl)-C-[2-(methoxycarbonyl)-1H-indol-3-yl]nitrone] stands greater than 1000 µM; under `CC(C)(C)/[N+]([O-])=C/c1cc([N+](=O)[O-])ccc1Sc1ccccn1` [Example 36, N-(tert-Butyl)-C-[5-nitro-2-(pyridin-2-ylthio)phenyl]nitrone], 100 to 500 µM.
Under `[O-]/[N+](=C\c1ccccc1N1CCN(c2ccc(C(F)(F)F)cn2)CC1)C1CCCCC1` [Example 24, N-Cyclohexyl-C-{2-[4-(5-(trifluoromethyl)pyridin-2-yl)piperazin-1-yl]phenyl}nitrone] stands 10 to 100 µM.
On to `Cc1ccc(Sc2ncccc2/C=[N+](\[O-])C(C)(C)C)cc1` [Example 43, N-(tert-Butyl)-C-[2-(4-methylphenylthio)pyridin-3-yl]nitrone], for which the EC50 is greater than 1000 µM.
In the case of `CSc1ccc(/C=[N+](\[O-])C(C)(C)C)c(SC)c1` [Example 32, N-(tert-Butyl)-C-[2,4-bis(methylthio)phenyl]nitrone], the EC50 was greater than 1000 µM.
The same measure for `COC(=O)c1c(/C=[N+](\[O-])C2CCCCC2)cc(OC)cc1OC` [Example 5, N-Cyclohexyl-C-[2-(methoxycarbonyl)-3,5-dimethoxyphenyl]nitrone]: 100 to 500 µM; for `[O-]/[N+](=C\c1ccccc1-n1cccn1)Cc1ccccc1` [Example 19, N-Benzyl-C-[2-(pyrazol-1-yl)phenyl]nitrone]: greater than 1000 µM; for `CC(C)(C)/[N+]([O-])=C/c1ccccc1N1CCN(c2ccc(C(F)(F)F)cn2)CC1` [Example 23, N-(tert-Butyl)-C-{2-[4-(5-(trifluoromethyl)pyridin-2-yl)piperazin-1-yl]phenyl}nitrone]: 100 to 500 µM.
The same measure for `CC(C)(C)/[N+]([O-])=C/c1ccccc1C(=O)O` [Example 7, N-(tert-Butyl)-C-(2-carboxyphenyl)nitrone]: 100 to 500 µM.
The same measure for “2(3)-tert-butylhydroquinone monomethyl ether [BHA, reference compound]”: less than 10 µM.
Take `[O-]/[N+](=C\c1cccnc1N1CCOCC1)Cc1ccccc1` [Example 48, N-Benzyl-C-[2-(1-morpholino)pyridin-3-yl]nitrone]: the EC50 was greater than 1000 µM.
Regarding `COC(=O)c1ccccc1/C=[N+](\[O-])Cc1ccccc1` [Example 3, N-Benzyl-C-[2-(methoxycarbonyl)phenyl]nitrone], the EC50 lay in the range of 500 to 1000 µM.
Regarding `COC(=O)c1c(/C=[N+](\[O-])C(C)(C)C)cc(OC)cc1OC` [Example 4, N-(tert-Butyl)-C-[2-(methoxycarbonyl)-3,5-dimethoxyphenyl]nitrone], the EC50 lay in the range of 100 to 500 µM.
Take `COc1cc(/C=[N+](\[O-])C(C)(C)C)c(C(=O)O)c(OC)c1` [Example 10, N-(tert-Butyl)-C-(2-carboxy-3,5-dimethoxyphenyl)nitrone]: the EC50 lay within 500 to 1000 µM.
Under `[O-]/[N+](=C\c1ccccc1N1CCOCC1)Cc1ccccc1` [Example 22, N-Benzyl-C-[2-(1-morpholino)phenyl]nitrone] stands greater than 1000 µM; under `[O-]/[N+](=C\c1ccccc1Sc1ccc(Cl)cc1)C1CCCCC1` [Example 27, N-Cyclohexyl-C-[2-(4-chlorophenylthio)phenyl]nitrone], greater than 1000 µM.
Regarding `CC(C)(C)C(=O)Nc1cccc(/C=[N+](\[O-])C2CCCCC2)n1` [Example 52, N-Cyclohexyl-C-[6-(2,2-dimethylpropanamido)pyridin-2-yl]nitrone], the EC50 lay in the range of 500 to 1000 µM.
As for `[O-]/[N+](=C\c1ccccc1-n1ccnc1)C1CCCCC1` [Example 15, N-Cyclohexyl-C-[2-(imidazol-1-yl)phenyl]nitrone], the EC50 is greater than 1000 µM.
Under `CC(C)(C)/[N+]([O-])=C/c1ccccc1N1CCOCC1` [Example 20, N-(tert-Butyl)-C-[2-(1-morpholino)phenyl]nitrone] stands 100 to 500 µM; under `COC(=O)c1[nH]c2ccccc2c1/C=[N+](\[O-])C1CCCCC1` [Example 39, N-Cyclohexyl-C-[2-(methoxycarbonyl)-1H-indol-3-yl]nitrone], greater than 1000 µM.
The same measure for `O=[N+]([O-])c1ccc(SC2CCCC2)c(/C=[N+](\[O-])Cc2ccccc2)c1` [Example 31, N-Benzyl-C-[2-(cyclopentylthio)-5-nitrophenyl]nitrone]: 500 to 1000 µM; for `[O-]/[N+](=C\c1ccccc1-n1ccnc1)Cc1ccccc1` [Example 16, N-Benzyl-C-[2-(imidazol-1-yl)phenyl]nitrone]: greater than 1000 µM.
Turning to `[O-]/[N+](=C\c1ccccc1N1CCOCC1)C1CCCCC1` [Example 21, N-Cyclohexyl-C-[2-(1-morpholino)phenyl]nitrone], the EC50 fell in the range of 100 to 500 µM.
The same measure for `COc1cc(/C=[N+](\[O-])Cc2ccccc2)c(C(=O)O)c(OC)c1` [Example 12, N-Benzyl-C-(2-carboxy-3,5-dimethoxyphenyl)nitrone]: 10 to 100 µM.
Under `CC(C)(C)/[N+]([O-])=C/c1ccccc1-n1ccnc1` [Example 14, N-(tert-Butyl)-C-[2-(imidazol-1-yl)phenyl]nitrone] stands greater than 1000 µM; under `CC(C)(C)/[N+]([O-])=C/c1ccccc1-n1cccn1` [Example 17, N-(tert-Butyl)-C-[2-(pyrazol-1-yl)phenyl]nitrone], greater than 1000 µM; under `CC(C)Sc1ccccc1/C=[N+](\[O-])C(C)(C)C` [Example 34, N-(tert-Butyl)-C-[2-(isopropylthio)phenyl]nitrone], greater than 1000 µM.
